This is an account of results in patent publication US20250026748A1, “N-(5-SUBSTITUTED-[(1,3,4-THIADIAZOLYL) OR (THIAZOLYL)])(SUBSTITUTED)CARBOXAMIDE COMPOUNDS AND USE THEREOF FOR INHIBITING HUMAN POLYMERASE THETA” (Repare Therapeutics Inc., priority 2021, published 2025).

The target of this assay is PolQ ATPase enzyme (1-894) (Homo sapiens (Human), UniProt O75417). The assay can be described thus: Polθ ATPase enzymatic assay (0.5 nM enzyme concentration), ADP-Glo. It counts as biochemical. The conditions noted are these: average IC50; 0.5 nM PolQ ATPase enzyme (1-894). The method, then: PolQ ATPase enzyme (1-894) at 0.5 nM is incubated with a 10-point concentration response of inhibitors for 15 min at rt in the following buffer: 50 mM Tris Cl pH 7.5, 10% glycerol, 5 mM DTT, 10 mM MgCl2, 0.1 mg/ml BSA. Following pre-incubation with inhibitors, DNA (Fork C) at 20 nM and ATP at 100 μM are added to start the reaction. Enzymatic reaction proceeds at rt for 180 min ATP consumption is measured using the ADP-Glo assay from Promega. Luminescence is read on the Envision and IC50 are determined using the variable slope 4-parameters equation.
Oligos are annealed by heating at 9500 for 5 min in the following buffer (10 mM Tris-HCl pH7.5, 50 mM NaCl, 1 mM EDTA) and cooled to rt. […]

A value given as a limit tells only on which side of the number the result lay.

One may read the IC50 as the concentration that gives 50% inhibition.

Sequence of PolQ ATPase enzyme (1-894) (O75417 1-894): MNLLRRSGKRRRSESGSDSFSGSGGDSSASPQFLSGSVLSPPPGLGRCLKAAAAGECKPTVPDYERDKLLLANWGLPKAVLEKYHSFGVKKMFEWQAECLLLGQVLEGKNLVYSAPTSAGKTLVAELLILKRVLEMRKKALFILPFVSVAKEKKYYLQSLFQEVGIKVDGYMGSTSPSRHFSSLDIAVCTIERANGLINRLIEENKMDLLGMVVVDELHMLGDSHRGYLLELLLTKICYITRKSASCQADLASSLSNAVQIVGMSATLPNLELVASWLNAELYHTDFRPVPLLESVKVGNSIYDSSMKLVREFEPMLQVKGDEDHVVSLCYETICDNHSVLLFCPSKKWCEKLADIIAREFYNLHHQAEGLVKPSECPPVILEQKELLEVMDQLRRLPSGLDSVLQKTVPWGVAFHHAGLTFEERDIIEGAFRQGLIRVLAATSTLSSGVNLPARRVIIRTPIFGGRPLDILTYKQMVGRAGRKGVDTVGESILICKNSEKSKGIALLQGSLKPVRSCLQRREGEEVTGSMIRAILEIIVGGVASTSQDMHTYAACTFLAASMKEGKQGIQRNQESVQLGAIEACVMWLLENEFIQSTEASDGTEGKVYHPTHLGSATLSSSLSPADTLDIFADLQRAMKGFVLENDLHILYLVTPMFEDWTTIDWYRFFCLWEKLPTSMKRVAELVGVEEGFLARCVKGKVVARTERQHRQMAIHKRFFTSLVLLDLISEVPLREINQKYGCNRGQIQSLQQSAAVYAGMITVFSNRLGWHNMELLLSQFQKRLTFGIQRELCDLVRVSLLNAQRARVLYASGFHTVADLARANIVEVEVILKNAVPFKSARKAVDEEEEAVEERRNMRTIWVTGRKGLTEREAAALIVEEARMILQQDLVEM

For the compound `COc1cnc(C(F)(F)F)cc1-c1cnccc1C(=O)Nc1nnc(C#CC2CC23CC3)s1` (stereo not drawn) [Compound 69], the IC50 turned out to be 0.28 nM.

In the case of `COc1cnc(C)cc1-c1cnccc1C(=O)Nc1nnc(C#CC2CC2)s1` [Compound 70], the IC50 was determined as 2.5 nM. As for `COc1cnc(CF)cc1-c1cnccc1C(=O)Nc1nnc(C#CC2CC2)s1` [Compound 71], the IC50 came to 1.8 nM. This IC50 and that of the compound before are within 1.5-fold of each other. For `COc1cnc(Cl)cc1-c1cc(C#N)ncc1C(=O)Nc1nnc(C#CC2CC2)s1` [Compound 72] the value was 0.62 nM.

`COc1cnc(Cl)cc1-c1cc(C(N)=O)ncc1C(=O)Nc1nnc(C#CC2CC2)s1` [Compound 73] displayed an IC50 of 0.42 nM.

As to `Cn1cc(-c2cc(Cl)ncc2OC(F)F)c(C(=O)Nc2nnc(C#CC3CC3)s2)cc1=O` [Compound 74], the IC50 was 0.73 nM. For `COc1ccc(C(F)(F)F)cc1-c1cn(CC(=O)N(C)C)c(=O)cc1C(=O)Nc1nnc(C#CC2CC2)s1` [Compound 75] the value was less than 0.25 nM. For `NC(=O)Cn1cc(-c2cc(Cl)ncc2OC(F)F)c(C(=O)Nc2nnc(C#CC3CC3)s2)cc1=O` [Compound 76] the value was less than 0.25 nM; for `CNC(=O)Cn1cc(-c2cc(Cl)ncc2OC(F)F)c(C(=O)Nc2nnc(C#CC3CC3)s2)cc1=O` [Compound 77], less than 0.25 nM; for `COc1ccc(C(F)(F)F)cc1-c1cn(C2COC2)c(=O)cc1C(=O)Nc1nnc(C#Cc2cc(C)[nH]n2)s1` [Compound 78], 2.71 nM. In turn, `COc1cnc(C2CC2)cc1-c1cnccc1C(=O)Nc1nnc(C#CC2CC2)s1` [Compound 79] returned an IC50 of 1.21 nM. `COc1ccc(C(F)(F)F)cc1-c1cn(C)c(=O)cc1C(=O)Nc1nnc(C#CC2CC2)s1` [Compound 80] gave an IC50 of 2.1 nM. Compared with the last compound, the IC50 is about 1.7-fold higher. Next, `COc1ccc(C(F)(F)F)cc1-c1cn(CC(=O)N(C)C)c(=O)cc1C(=O)Nc1nnc(C#Cc2cc(C)[nH]n2)s1` [Compound 81]: less than 0.25 nM; `CNC(=O)Cn1cc(-c2cc(C(F)(F)F)ccc2OC)c(C(=O)Nc2nnc(C#Cc3cc(C)[nH]n3)s2)cc1=O` [Compound 82]: less than 0.25 nM; `COc1cnc(Cl)cc1-c1cn(CC(N)=O)c(=O)cc1C(=O)Nc1nnc(C#CC2CC23CC3)s1` (stereo not drawn) [Compound 83]: less than 0.25 nM. Next, `COc1cnc(C)cc1-c1cnccc1C(=O)Nc1nnc(C#Cc2cc(C)[nH]n2)s1` [Compound 85]: 1.1 nM. For `COc1ccc(C(F)(F)F)cc1-c1cn2ncnc2cc1C(=O)Nc1nnc(C#Cc2cc(C)[nH]n2)s1` [Compound 86] the value was 1.6 nM. Regarding `COc1ccc(C(F)F)cc1-c1cn(CC(N)=O)c(=O)cc1C(=O)Nc1nnc(C#CC2CC2)s1` [Compound 87], the IC50 worked out at 0.36 nM. For `COc1ncc(C(F)(F)F)cc1-c1cnccc1C(=O)Nc1nnc(C#Cc2cc(C)[nH]n2)s1` [Compound 88] the value was 2.4 nM; for `CNC(=O)Cn1cc(-c2cc(C(F)(F)F)cnc2OC)c(C(=O)Nc2nnc(C#CC3CC3)s2)cc1=O` [Compound 89], 1.2 nM; for `COc1cnc(C(F)(F)F)cc1-c1cnccc1C(=O)Nc1nnc(C2CC2c2ccc(C#N)cc2)s1` (stereo not drawn) [Compound 90], 0.8 nM. Next, `COc1cnc(C(F)(F)F)cc1-c1cnccc1C(=O)Nc1nnc(C#CC2CC2)s1` [Compound 91]: 2.3 nM; `CNC(=O)Cn1cc(-c2cc(C(F)(F)F)ccc2OC)c(C(=O)Nc2nnc(C3CC3c3ccc(C#N)cc3)s2)cc1=O` (stereo not drawn) [Compound 92]: 0.25 nM. `CNC(=O)Cn1cc(-c2cc(C(F)(F)F)ccc2OC)c(C(=O)Nc2nnc(C#CC3CC3)s2)cc1=O` [Compound 93] gave an IC50 of 0.32 nM. Turning to `COc1ccc(C(F)(F)F)cc1-c1cn(CC(N)=O)c(=O)cc1C(=O)Nc1nnc(C#Cc2cc(C)[nH]n2)s1` [Compound 94], the IC50 is less than 0.25 nM. For `COc1ccc(C(F)(F)F)cc1-c1cn(CC(N)=O)c(=O)cc1C(=O)Nc1nnc(C#CC2CC2)s1` [Compound 95] the value was less than 0.25 nM; for `COc1cnc(Cl)cc1-c1cn2ncnc2cc1C(=O)Nc1nnc(C#CC2CC2)s1` [Compound 96], 2.6 nM; for `COc1cnc(Cl)cc1-c1cn2ncnc2cc1C(=O)Nc1nnc(C#Cc2cc(C)[nH]n2)s1` [Compound 97], 2 nM. Next, `Cc1cc(C#Cc2nnc(NC(=O)c3cc(=O)n(C)cc3-c3cc(Cl)ncc3OC(F)F)s2)n[nH]1` [Compound 98]: 0.54 nM; `COc1cnc(Cl)cc1-c1cn(CC(=O)N(C)C)c(=O)cc1C(=O)Nc1nnc(C#CC2CC2)s1` [Compound 99]: 0.36 nM; `COc1cnc(Cl)cc1-c1cnccc1C(=O)Nc1nnc(C#CC2CC23CC3)s1` (stereo not drawn) [Compound 100]: less than 0.25 nM. `COc1ccc(F)cc1-c1cnccc1C(=O)Nc1nnc(C#Cc2cc(C#N)[nH]n2)s1` [Compound 101] yielded an IC50 of less than 0.25 nM. For `COc1ccc(C(F)(F)F)cc1-c1cn(C)c(=O)cc1C(=O)Nc1nnc(C#Cc2cc(C)[nH]n2)s1` [Compound 102] the value was 1.2 nM. Next, `COc1cnc(Cl)cc1-c1cn(C)c(=O)cc1C(=O)Nc1nnc(C#Cc2cc(C)[nH]n2)s1` [Compound 103]: 1.2 nM; `CNC(=O)Cn1cc(-c2cc(Cl)ncc2OC)c(C(=O)Nc2nnc(C#CC3CC3)s2)cc1=O` [Compound 104]: 0.31 nM; `COc1cnc(Cl)cc1-c1cn(CC(N)=O)c(=O)cc1C(=O)Nc1nnc(C#CC2CC2)s1` [Compound 105]: 0.47 nM. The compound `Cc1cc(C#Cc2nnc(NC(=O)c3ccncc3-c3cc(Cl)ncc3OC(F)F)s2)n[nH]1` [Compound 106] returned an IC50 of less than 0.25 nM. For `COc1cnc(Cl)cc1-c1cn(C)c(=O)cc1C(=O)Nc1nnc(C#CC2CC23CC3)s1` (stereo not drawn) [Compound 107] the value was 0.76 nM; for `COc1cnc(C(F)F)cc1-c1cc(N2CCOCC2=O)ccc1C(=O)Nc1nnc(C#CC2CC2)s1` [Compound 108, N-(5-(cyclopropylethynyl)-1,3,4-thiadiazol-2-yl)-2-(2-(difluoromethyl)-5-methoxypyridin-4-yl)-4-(3-oxomorpholino)benzamide], less than 0.25 nM; for `COc1cnc(C(F)F)cc1-c1cc(N2CCN(C)CC2=O)ccc1C(=O)Nc1nnc(C#CC2CC2)s1` [Compound 109, N-(5-(cyclopropylethynyl)-1,3,4-thiadiazol-2-yl)-2-(2-(difluoromethyl)-5-methoxypyridin-4-yl)-4-(4-methyl-2-oxopiperazin-1-yl)benzamide], less than 0.25 nM. For `COc1cnc(C(F)F)cc1-c1cc(N2CCOCC2=O)ncc1C(=O)Nc1nnc(C#CC2CC2)s1` [Compound 110, N-(5-(cyclopropylethynyl)-1,3,4-thiadiazol-2-yl)-2′-(difluoromethyl)-5′-methoxy-6-(3-oxomorpholino)-[4,4′-bipyridine]-3-carboxamide] the value was less than 0.25 nM; for `COc1cnc(C(F)F)cc1-c1cc(-c2nnc(C)o2)ccc1C(=O)Nc1nnc(C#CC2CC2)s1` [Compound 111, N-(5-(cyclopropylethynyl)-1,3,4-thiadiazol-2-yl)-2-(2-(difluoromethyl)-5-methoxypyridin-4-yl)-4-(5-methyl-1,3,4-oxadiazol-2-yl)benzamide], 0.78 nM.
